PubChem BioAssay (NCI)
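How tested: cells in 96-well plates exposed to compound for 48 hours at five concentrations. The concentration for full growth arrest is given as TGI.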

Legend:
Assay in all cases: NCI tumour cell line growth inhibition, 48 h
A498 renal = system: A498 renal
SF-268 CNS = system: SF-268 CNS
786-0 renal = system: 786-0 renal
MDA-MB-231 breast = system: MDA-MB-231 breast
HOP-62 NSCLC = system: HOP-62 NSCLC
HT29 colon = system: HT29 colon
M14 melanoma = system: M14 melanoma
SR leukemia = system: SR leukemia
A549 NSCLC = system: A549 NSCLC
NCI-H226 lung = system: NCI-H226 lung
K-562 leukemia = system: K-562 leukemia
SK-OV-3 ovarian = system: SK-OV-3 ovarian
HCT-15 colon = system: HCT-15 colon
MOLT-4 leukemia = system: MOLT-4 leukemia
LOX IMVI melanoma = system: LOX IMVI melanoma
HL-60(TB) leukemia = system: HL-60(TB) leukemia
SNB-75 CNS = system: SNB-75 CNS
DU-145 prostate = system: DU-145 prostate
U251 CNS = system: U251 CNS
OVCAR-8 ovarian = system: OVCAR-8 ovarian
HCC-2998 colon = system: HCC-2998 colon
HS 578T breast = system: HS 578T breast
MALME-3M melanoma = system: MALME-3M melanoma
HCT-116 colon = system: HCT-116 colon
NCI-H23 lung = system: NCI-H23 lung
SNB-19 CNS = system: SNB-19 CNS
PC-3 prostate = system: PC-3 prostate
KM12 colon = system: KM12 colon
SK-MEL-2 melanoma = system: SK-MEL-2 melanoma
T-47D breast = system: T-47D breast
RXF 393 renal = system: RXF 393 renal
NCI-H522 lung = system: NCI-H522 lung
OVCAR-5 ovarian = system: OVCAR-5 ovarian
MDA-N = system: MDA-N
BT-549 breast = system: BT-549 breast
SK-MEL-28 melanoma = system: SK-MEL-28 melanoma
OVCAR-4 ovarian = system: OVCAR-4 ovarian
RPMI-8226 leukemia = system: RPMI-8226 leukemia
SK-MEL-5 melanoma = system: SK-MEL-5 melanoma
COLO 205 colon = system: COLO 205 colon
SF-295 CNS = system: SF-295 CNS
HOP-92 NSCLC = system: HOP-92 NSCLC
EKVX NSCLC = system: EKVX NSCLC
SN12C renal = system: SN12C renal
SW-620 colon = system: SW-620 colon
CAKI-1 renal = system: CAKI-1 renal
MCF7 breast = system: MCF7 breast
ACHN renal = system: ACHN renal
OVCAR-3 ovarian = system: OVCAR-3 ovarian
UACC-257 melanoma = system: UACC-257 melanoma
UACC-62 melanoma = system: UACC-62 melanoma
NCI/ADR-RES ovarian = system: NCI/ADR-RES ovarian
TK-10 renal = system: TK-10 renal
MDA-MB-435 = system: MDA-MB-435
UO-31 renal = system: UO-31 renal
CCRF-CEM leukemia = system: CCRF-CEM leukemia
IGROV1 ovarian = system: IGROV1 ovarian
NCI-H460 lung = system: NCI-H460 lung
SF-539 CNS = system: SF-539 CNS

CC(=O)Oc1ccc2c3c1[C@H]1O[C@H]1c1cccc(c1-3)[C@@H]1O[C@H]21 was tested, and the TGI (A498 renal) was 33.8 µM, the TGI (SF-268 CNS) was 14.4 µM and the TGI (786-0 renal) was 6.01 µM. The TGI (MDA-MB-231 breast) was 31.5 µM, the TGI (HOP-62 NSCLC) was 17.5 µM and the TGI (HT29 colon) was 47.4 µM. For the same compound, the TGI (M14 melanoma) was 10.2 µM, the TGI (SR leukemia) was over 100 µM and the TGI (A549 NSCLC) was 22.1 µM. It also gave a TGI (NCI-H226 lung) of 56.8 µM, a TGI (K-562 leukemia) of over 100 µM and a TGI (SK-OV-3 ovarian) of 27.9 µM. It also gave a TGI (HCT-15 colon) of 13.1 µM, a TGI (MOLT-4 leukemia) of over 100 µM and a TGI (LOX IMVI melanoma) of 4.13 µM. It also gave a TGI (HL-60(TB) leukemia) of 6.61 µM, a TGI (SNB-75 CNS) of 15.7 µM and a TGI (DU-145 prostate) of 20.8 µM. For the same compound, the TGI (U251 CNS) was 18.9 µM, the TGI (OVCAR-8 ovarian) was 9.88 µM and the TGI (HCC-2998 colon) was 25.3 µM. It also gave a TGI (HS 578T breast) of 14.4 µM, a TGI (MALME-3M melanoma) of 5.76 µM and a TGI (HCT-116 colon) of 34.4 µM. The TGI (NCI-H23 lung) was 12.7 µM, the TGI (SNB-19 CNS) was 30.5 µM and the TGI (PC-3 prostate) was 32.9 µM. For the same compound, the TGI (KM12 colon) was 27.5 µM, the TGI (SK-MEL-2 melanoma) was 39.6 µM and the TGI (T-47D breast) was 6.79 µM. The TGI (RXF 393 renal) was 6.84 µM, the TGI (NCI-H522 lung) was 4.51 µM and the TGI (OVCAR-5 ovarian) was 31.8 µM. For the same compound, the TGI (MDA-N) was 20.9 µM, the TGI (BT-549 breast) was 23.6 µM and the TGI (SK-MEL-28 melanoma) was 27.7 µM. For the same compound, the TGI (OVCAR-4 ovarian) was 18.6 µM, the TGI (RPMI-8226 leukemia) was over 100 µM and the TGI (SK-MEL-5 melanoma) was 12.1 µM. The TGI (COLO 205 colon) was 27.4 µM, the TGI (SF-295 CNS) was 25 µM and the TGI (HOP-92 NSCLC) was 24.9 µM. It also gave a TGI (EKVX NSCLC) of 36.9 µM, a TGI (SN12C renal) of 7.55 µM and a TGI (SW-620 colon) of 4.59 µM. It also gave a TGI (CAKI-1 renal) of 7.96 µM, a TGI (MCF7 breast) of over 100 µM and a TGI (ACHN renal) of 37.4 µM. The TGI (OVCAR-3 ovarian) was 11.8 µM, the TGI (UACC-257 melanoma) was 32.9 µM and the TGI (UACC-62 melanoma) was 20.8 µM. It also gave a TGI (NCI/ADR-RES ovarian) of 43.5 µM, a TGI (TK-10 renal) of 31.8 µM and a TGI (MDA-MB-435) of 4.26 µM. For the same compound, the TGI (UO-31 renal) was 8.94 µM.
COC(=O)C12C3C4C1C1C2C3C41C(=O)NC(C)(C)CC(=O)O (stereo not drawn) showed a TGI (A498 renal) of over 100 µM, a TGI (CCRF-CEM leukemia) of over 100 µM and a TGI (SF-268 CNS) of over 100 µM. The TGI (786-0 renal) was over 100 µM, the TGI (MDA-MB-231 breast) was over 100 µM and the TGI (IGROV1 ovarian) was over 100 µM. It also gave a TGI (HOP-62 NSCLC) of over 100 µM, a TGI (HT29 colon) of over 100 µM and a TGI (M14 melanoma) of over 100 µM. It also gave a TGI (SR leukemia) of over 100 µM, a TGI (A549 NSCLC) of over 100 µM and a TGI (NCI-H226 lung) of over 100 µM. For the same compound, the TGI (HCT-15 colon) was over 100 µM, the TGI (MOLT-4 leukemia) was over 100 µM and the TGI (LOX IMVI melanoma) was over 100 µM. For the same compound, the TGI (HL-60(TB) leukemia) was over 100 µM, the TGI (SNB-75 CNS) was over 100 µM and the TGI (DU-145 prostate) was over 100 µM. For the same compound, the TGI (U251 CNS) was over 100 µM, the TGI (OVCAR-8 ovarian) was over 100 µM and the TGI (HCC-2998 colon) was over 100 µM. For the same compound, the TGI (HS 578T breast) was over 100 µM, the TGI (NCI-H460 lung) was 61 µM and the TGI (MALME-3M melanoma) was over 100 µM. It also gave a TGI (HCT-116 colon) of over 100 µM, a TGI (NCI-H23 lung) of over 100 µM and a TGI (SNB-19 CNS) of over 100 µM. It also gave a TGI (PC-3 prostate) of over 100 µM, a TGI (KM12 colon) of over 100 µM and a TGI (SK-MEL-2 melanoma) of over 100 µM. The TGI (T-47D breast) was over 100 µM, the TGI (RXF 393 renal) was over 100 µM and the TGI (NCI-H522 lung) was over 100 µM. For the same compound, the TGI (OVCAR-5 ovarian) was over 100 µM, the TGI (MDA-N) was over 100 µM and the TGI (BT-549 breast) was over 100 µM. For the same compound, the TGI (SK-MEL-28 melanoma) was over 100 µM, the TGI (OVCAR-4 ovarian) was over 100 µM and the TGI (RPMI-8226 leukemia) was over 100 µM. It also gave a TGI (SK-MEL-5 melanoma) of over 100 µM, a TGI (COLO 205 colon) of over 100 µM and a TGI (SF-295 CNS) of over 100 µM. It also gave a TGI (SF-539 CNS) of over 100 µM, a TGI (HOP-92 NSCLC) of over 100 µM and a TGI (EKVX NSCLC) of over 100 µM. The TGI (SN12C renal) was over 100 µM, the TGI (SW-620 colon) was over 100 µM and the TGI (CAKI-1 renal) was over 100 µM. It also gave a TGI (MCF7 breast) of over 100 µM, a TGI (ACHN renal) of over 100 µM and a TGI (OVCAR-3 ovarian) of over 100 µM. For the same compound, the TGI (UACC-257 melanoma) was over 100 µM, the TGI (UACC-62 melanoma) was over 100 µM and the TGI (NCI/ADR-RES ovarian) was over 100 µM. For the same compound, the TGI (TK-10 renal) was over 100 µM, the TGI (MDA-MB-435) was over 100 µM and the TGI (UO-31 renal) was over 100 µM.
Work on Cc1cc(Cc2c(C)c(C)c(Cc3cc(C)cc(C(C)(C)C)c3O)c(C)c2C)c(O)c(C(C)(C)C)c1 yielded a TGI (A498 renal) of over 100 µM, a TGI (SF-268 CNS) of over 100 µM and a TGI (786-0 renal) of over 100 µM. The TGI (MDA-MB-231 breast) was over 100 µM, the TGI (IGROV1 ovarian) was over 100 µM and the TGI (HOP-62 NSCLC) was over 100 µM. For the same compound, the TGI (HT29 colon) was over 100 µM, the TGI (M14 melanoma) was over 100 µM and the TGI (SR leukemia) was over 100 µM. For the same compound, the TGI (A549 NSCLC) was over 100 µM, the TGI (NCI-H226 lung) was over 100 µM and the TGI (K-562 leukemia) was over 100 µM. For the same compound, the TGI (SK-OV-3 ovarian) was over 100 µM, the TGI (HCT-15 colon) was over 100 µM and the TGI (MOLT-4 leukemia) was over 100 µM. It also gave a TGI (LOX IMVI melanoma) of over 100 µM, a TGI (HL-60(TB) leukemia) of 83.6 µM and a TGI (SNB-75 CNS) of over 100 µM. The TGI (DU-145 prostate) was over 100 µM, the TGI (U251 CNS) was over 100 µM and the TGI (OVCAR-8 ovarian) was over 100 µM. It also gave a TGI (HS 578T breast) of over 100 µM, a TGI (NCI-H460 lung) of over 100 µM and a TGI (MALME-3M melanoma) of over 100 µM. It also gave a TGI (HCT-116 colon) of over 100 µM, a TGI (SNB-19 CNS) of over 100 µM and a TGI (PC-3 prostate) of over 100 µM. The TGI (KM12 colon) was over 100 µM, the TGI (SK-MEL-2 melanoma) was over 100 µM and the TGI (T-47D breast) was over 100 µM. It also gave a TGI (RXF 393 renal) of over 100 µM, a TGI (NCI-H522 lung) of over 100 µM and a TGI (OVCAR-5 ovarian) of over 100 µM. It also gave a TGI (MDA-N) of over 100 µM, a TGI (BT-549 breast) of over 100 µM and a TGI (SK-MEL-28 melanoma) of over 100 µM. The TGI (OVCAR-4 ovarian) was over 100 µM, the TGI (RPMI-8226 leukemia) was over 100 µM and the TGI (SK-MEL-5 melanoma) was over 100 µM. For the same compound, the TGI (COLO 205 colon) was over 100 µM, the TGI (SF-295 CNS) was over 100 µM and the TGI (SF-539 CNS) was over 100 µM. For the same compound, the TGI (HOP-92 NSCLC) was over 100 µM, the TGI (EKVX NSCLC) was over 100 µM and the TGI (SN12C renal) was over 100 µM. It also gave a TGI (SW-620 colon) of over 100 µM, a TGI (CAKI-1 renal) of over 100 µM and a TGI (MCF7 breast) of over 100 µM. The TGI (ACHN renal) was over 100 µM, the TGI (OVCAR-3 ovarian) was over 100 µM and the TGI (UACC-257 melanoma) was over 100 µM. The TGI (UACC-62 melanoma) was over 100 µM, the TGI (NCI/ADR-RES ovarian) was over 100 µM and the TGI (TK-10 renal) was over 100 µM. For the same compound, the TGI (MDA-MB-435) was over 100 µM and the TGI (UO-31 renal) was over 100 µM.
